Holding throughout (details): Compound concentration 10 µM
Experiment [1] addresses Histamine H4 receptor (Homo sapiens) (UniProt Q9H3N8).
Experiment [2] addresses Muscarinic acetylcholine receptor M3 (Homo sapiens) (UniProt P20309).
For experiment [3], the target named is T1, Alpha-2B adrenergic receptor (Homo sapiens) (UniProt P18089).
T1 sequence (whole entry): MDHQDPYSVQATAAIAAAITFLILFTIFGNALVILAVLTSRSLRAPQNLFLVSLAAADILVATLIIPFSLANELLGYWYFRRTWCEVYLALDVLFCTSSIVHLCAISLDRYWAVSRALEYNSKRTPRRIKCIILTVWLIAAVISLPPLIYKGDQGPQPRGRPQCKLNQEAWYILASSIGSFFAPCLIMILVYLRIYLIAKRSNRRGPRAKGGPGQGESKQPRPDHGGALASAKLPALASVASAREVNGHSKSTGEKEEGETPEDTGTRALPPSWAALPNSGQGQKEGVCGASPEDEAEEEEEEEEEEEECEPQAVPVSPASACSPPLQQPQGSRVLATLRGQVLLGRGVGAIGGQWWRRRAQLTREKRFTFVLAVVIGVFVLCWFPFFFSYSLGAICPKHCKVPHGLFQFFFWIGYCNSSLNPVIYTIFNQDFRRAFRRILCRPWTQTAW

Experiment [4] addresses T2, 5-hydroxytryptamine receptor 3A (Homo sapiens) (UniProt P46098).
T2 sequence (whole entry): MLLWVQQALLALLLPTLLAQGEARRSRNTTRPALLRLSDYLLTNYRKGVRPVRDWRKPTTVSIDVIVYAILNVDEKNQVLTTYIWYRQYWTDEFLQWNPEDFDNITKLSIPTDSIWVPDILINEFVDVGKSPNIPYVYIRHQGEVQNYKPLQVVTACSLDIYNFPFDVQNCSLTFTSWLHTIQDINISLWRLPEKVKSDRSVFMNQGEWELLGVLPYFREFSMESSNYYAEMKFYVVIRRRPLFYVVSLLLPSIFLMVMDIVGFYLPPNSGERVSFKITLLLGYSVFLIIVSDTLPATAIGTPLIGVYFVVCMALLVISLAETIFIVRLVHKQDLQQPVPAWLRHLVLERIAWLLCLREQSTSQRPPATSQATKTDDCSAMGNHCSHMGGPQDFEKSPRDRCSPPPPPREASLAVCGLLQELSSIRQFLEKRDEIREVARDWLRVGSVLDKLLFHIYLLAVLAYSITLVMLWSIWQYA

Experiment [5] has as its target D(2) dopamine receptor (Homo sapiens) (UniProt P14416).
In experiment [6] the target is T3, Alpha-1B adrenergic receptor (Homo sapiens) (UniProt P35368).
T3 sequence (whole entry): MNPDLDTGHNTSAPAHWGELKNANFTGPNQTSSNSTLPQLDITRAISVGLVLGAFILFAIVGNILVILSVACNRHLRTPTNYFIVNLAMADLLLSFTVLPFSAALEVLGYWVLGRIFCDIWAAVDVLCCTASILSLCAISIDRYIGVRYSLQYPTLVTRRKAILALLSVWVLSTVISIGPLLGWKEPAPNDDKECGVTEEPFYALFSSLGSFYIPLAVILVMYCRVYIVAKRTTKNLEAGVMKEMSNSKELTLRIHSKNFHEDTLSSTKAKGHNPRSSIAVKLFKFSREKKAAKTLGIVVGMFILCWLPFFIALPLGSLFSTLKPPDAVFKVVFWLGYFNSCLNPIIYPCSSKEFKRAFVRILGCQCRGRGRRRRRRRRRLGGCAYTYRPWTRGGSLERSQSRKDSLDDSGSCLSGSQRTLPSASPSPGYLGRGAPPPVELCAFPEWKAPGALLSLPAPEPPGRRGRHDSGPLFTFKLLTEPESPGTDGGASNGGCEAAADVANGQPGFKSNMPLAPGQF

Experiment [7] addresses T4, Alpha-2C adrenergic receptor (Homo sapiens) (UniProt P18825).
T4 sequence (whole entry): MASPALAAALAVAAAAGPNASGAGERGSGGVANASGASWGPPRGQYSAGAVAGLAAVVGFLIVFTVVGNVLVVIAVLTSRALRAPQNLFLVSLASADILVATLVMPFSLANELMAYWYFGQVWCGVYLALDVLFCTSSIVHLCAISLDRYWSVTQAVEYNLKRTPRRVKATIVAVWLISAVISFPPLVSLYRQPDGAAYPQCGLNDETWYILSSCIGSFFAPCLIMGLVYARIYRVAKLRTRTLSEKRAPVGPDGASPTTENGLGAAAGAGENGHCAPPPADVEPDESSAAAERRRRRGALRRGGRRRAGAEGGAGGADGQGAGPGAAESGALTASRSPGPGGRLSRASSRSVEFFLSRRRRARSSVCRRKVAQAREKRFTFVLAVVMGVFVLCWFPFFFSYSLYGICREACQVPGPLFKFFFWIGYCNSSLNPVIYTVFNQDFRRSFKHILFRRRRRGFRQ

The target of experiment [8] is Sigma intracellular receptor 2 (Homo sapiens) (UniProt Q5BJF2).
Experiment [9] deals with Sodium-dependent noradrenaline transporter (Homo sapiens) (UniProt P23975).
The target in experiment [10] is T5, D(4) dopamine receptor (Homo sapiens) (UniProt P21917).
T5 sequence (whole entry): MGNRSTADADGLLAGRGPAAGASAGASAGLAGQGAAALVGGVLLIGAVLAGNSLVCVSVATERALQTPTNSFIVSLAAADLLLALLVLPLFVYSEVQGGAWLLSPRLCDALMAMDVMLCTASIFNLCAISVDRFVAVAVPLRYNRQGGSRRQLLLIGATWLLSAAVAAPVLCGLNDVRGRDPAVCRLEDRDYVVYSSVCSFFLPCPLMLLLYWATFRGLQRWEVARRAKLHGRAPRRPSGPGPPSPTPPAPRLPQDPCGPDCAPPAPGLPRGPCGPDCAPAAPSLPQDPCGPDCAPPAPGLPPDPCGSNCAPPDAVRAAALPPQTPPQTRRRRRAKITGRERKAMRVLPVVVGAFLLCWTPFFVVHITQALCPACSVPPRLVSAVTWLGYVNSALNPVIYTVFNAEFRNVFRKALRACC

Experiment [11] addresses D(1A) dopamine receptor (Homo sapiens) (UniProt P21728).
In experiment [12] the target is Translocator protein (Homo sapiens) (UniProt P30536).

For 10 compounds, inhibition results are on record in ChEMBL document CHEMBL5442219.

SMILES strings stand for the structures.

Chain of Sodium-dependent noradrenaline transporter (Homo sapiens) (P23975 whole entry): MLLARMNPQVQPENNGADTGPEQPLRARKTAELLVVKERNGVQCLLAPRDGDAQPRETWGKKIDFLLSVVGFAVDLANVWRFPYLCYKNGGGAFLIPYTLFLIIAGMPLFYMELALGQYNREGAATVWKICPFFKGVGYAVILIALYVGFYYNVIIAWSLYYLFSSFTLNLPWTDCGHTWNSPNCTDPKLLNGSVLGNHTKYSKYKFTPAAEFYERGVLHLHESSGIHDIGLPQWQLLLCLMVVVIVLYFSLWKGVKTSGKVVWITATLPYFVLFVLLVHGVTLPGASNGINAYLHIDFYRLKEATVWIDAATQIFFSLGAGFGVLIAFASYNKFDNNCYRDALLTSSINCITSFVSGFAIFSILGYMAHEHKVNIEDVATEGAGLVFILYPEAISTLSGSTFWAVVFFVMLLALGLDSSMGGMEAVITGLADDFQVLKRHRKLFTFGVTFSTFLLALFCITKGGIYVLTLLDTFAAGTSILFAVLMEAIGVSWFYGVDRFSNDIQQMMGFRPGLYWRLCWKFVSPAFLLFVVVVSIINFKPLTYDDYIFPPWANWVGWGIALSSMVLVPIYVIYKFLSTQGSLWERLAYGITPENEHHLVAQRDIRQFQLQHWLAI
Chain of D(2) dopamine receptor (Homo sapiens) (P14416 whole entry): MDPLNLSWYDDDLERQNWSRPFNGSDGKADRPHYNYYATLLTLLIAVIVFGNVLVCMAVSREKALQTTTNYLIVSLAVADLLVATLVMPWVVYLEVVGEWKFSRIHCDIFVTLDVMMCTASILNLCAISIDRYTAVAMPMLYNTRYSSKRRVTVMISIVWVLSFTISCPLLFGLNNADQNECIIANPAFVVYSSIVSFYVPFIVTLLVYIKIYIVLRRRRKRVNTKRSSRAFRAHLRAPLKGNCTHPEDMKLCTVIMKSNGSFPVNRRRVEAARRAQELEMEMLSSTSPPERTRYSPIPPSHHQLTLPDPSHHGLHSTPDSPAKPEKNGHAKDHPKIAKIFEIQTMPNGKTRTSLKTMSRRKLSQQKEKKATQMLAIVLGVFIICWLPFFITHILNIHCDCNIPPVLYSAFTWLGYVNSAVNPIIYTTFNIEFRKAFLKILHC
Chain of Histamine H4 receptor (Homo sapiens) (Q9H3N8 whole entry): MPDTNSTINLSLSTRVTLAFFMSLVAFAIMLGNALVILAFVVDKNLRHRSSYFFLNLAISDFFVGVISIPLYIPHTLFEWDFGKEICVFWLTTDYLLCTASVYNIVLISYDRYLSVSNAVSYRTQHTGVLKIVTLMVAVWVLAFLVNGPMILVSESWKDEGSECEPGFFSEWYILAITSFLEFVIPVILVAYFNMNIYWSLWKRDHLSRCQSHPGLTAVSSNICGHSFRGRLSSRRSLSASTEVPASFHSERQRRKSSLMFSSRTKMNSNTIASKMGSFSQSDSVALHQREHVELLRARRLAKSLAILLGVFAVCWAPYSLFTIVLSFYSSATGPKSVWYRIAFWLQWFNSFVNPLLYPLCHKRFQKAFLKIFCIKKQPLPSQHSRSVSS
Chain of D(1A) dopamine receptor (Homo sapiens) (P21728 whole entry): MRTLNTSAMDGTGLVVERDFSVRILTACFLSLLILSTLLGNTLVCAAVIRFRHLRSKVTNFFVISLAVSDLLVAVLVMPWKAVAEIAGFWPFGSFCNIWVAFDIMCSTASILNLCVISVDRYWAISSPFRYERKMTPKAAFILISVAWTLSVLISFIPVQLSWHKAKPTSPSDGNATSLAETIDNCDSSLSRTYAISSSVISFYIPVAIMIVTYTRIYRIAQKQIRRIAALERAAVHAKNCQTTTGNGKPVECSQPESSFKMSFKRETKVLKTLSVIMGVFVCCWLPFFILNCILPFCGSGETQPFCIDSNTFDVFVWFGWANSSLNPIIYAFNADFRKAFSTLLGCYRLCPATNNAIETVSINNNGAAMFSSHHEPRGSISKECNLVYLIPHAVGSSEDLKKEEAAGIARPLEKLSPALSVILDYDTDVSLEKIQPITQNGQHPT
Chain of Muscarinic acetylcholine receptor M3 (Homo sapiens) (P20309 whole entry, looked up): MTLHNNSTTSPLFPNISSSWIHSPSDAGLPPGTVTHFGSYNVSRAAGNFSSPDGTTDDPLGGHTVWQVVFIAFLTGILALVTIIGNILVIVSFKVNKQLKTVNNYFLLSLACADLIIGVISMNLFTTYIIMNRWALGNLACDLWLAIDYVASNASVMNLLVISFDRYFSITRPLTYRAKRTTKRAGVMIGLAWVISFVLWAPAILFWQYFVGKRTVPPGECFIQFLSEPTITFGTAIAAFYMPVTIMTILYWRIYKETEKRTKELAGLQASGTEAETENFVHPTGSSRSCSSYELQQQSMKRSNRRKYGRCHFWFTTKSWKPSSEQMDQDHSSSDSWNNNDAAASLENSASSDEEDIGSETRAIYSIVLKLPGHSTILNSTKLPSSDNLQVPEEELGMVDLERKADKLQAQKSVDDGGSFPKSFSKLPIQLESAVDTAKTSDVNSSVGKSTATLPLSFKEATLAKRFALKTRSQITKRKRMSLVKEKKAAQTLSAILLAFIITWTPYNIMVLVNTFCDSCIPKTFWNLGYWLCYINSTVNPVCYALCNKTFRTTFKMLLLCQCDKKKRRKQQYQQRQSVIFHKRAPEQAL
Chain of Sigma intracellular receptor 2 (Homo sapiens) (Q5BJF2 whole entry): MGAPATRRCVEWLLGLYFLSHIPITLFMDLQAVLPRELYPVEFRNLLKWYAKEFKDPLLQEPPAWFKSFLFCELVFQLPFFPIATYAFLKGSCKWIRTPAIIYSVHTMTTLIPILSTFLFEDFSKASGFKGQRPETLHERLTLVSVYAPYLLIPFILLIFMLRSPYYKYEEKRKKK
Chain of Translocator protein (Homo sapiens) (P30536 whole entry): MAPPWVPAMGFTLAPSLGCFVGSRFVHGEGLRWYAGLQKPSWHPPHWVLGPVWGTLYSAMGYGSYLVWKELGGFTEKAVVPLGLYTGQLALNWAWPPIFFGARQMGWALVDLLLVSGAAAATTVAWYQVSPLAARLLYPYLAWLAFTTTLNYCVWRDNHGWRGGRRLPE

The inhibition is the change of the read-out against control, counted positive when it falls. As for `Cc1nc(-c2ccc(-c3ccc(C(=O)N4CCc5cc6c(cc54)C4(CCN(C)CC4)CO6)cc3)c(C)c2)no1`, the inhibition in experiment [1] is 20.5%; in experiment [2], 73%; in experiment [3], 69.5%; in experiment [4] it was 43.9%; in experiment [5], 29%; in experiment [6], 16.4%. In addition, the inhibition in [7] was 38%; in experiment [8], 95.4%; in [9], 69.2%; in [10] it was 16.6%; in experiment [11], 53.5%; in experiment [12], 24.4%.

With `N#Cc1ccc2[nH]cc(CCCCN3CCN(c4ccc5oc(C(N)=O)cc5c4)CC3)c2c1`, the inhibition in [1] is 24.6%; in experiment [2], 12.6%; in experiment [3], 47.1%; in experiment [4] it was 46.7%; in experiment [5], 79.4%; in experiment [6], 53.7%. Further, the inhibition in experiment [7] is 76.3%; in [8], 80.3%; in [9] it was 98.1%; in [10], 80.5%; in experiment [11] it was 22.6%; in experiment [12], -4.35%.

With `CCCCN1CCC(COC(=O)c2cc(Cl)c(N)c3c2OCCO3)CC1`, the inhibition in experiment [1] is -1.37%; in experiment [2], 14.6%; in [3] it was 33.3%; in experiment [4], 72.4%; in [5], 43.7%; in [6], -1.39%. The inhibition in experiment [7] is 78.8%; in experiment [8] it was 96.8%; in experiment [9], 42.9%; in experiment [10], 24.9%; in experiment [11], 3.42%; in experiment [12] it was 0.42%.

`Oc1ccc2c3c1O[C@H]1c4[nH]c5c(c4C[C@@]4(O)[C@@H](C2)N(CC2CC2)CC[C@]314)C[C@@]1(O)[C@H]2Cc3ccc(O)c4c3[C@@]1(CCN2CC1CC1)[C@H]5O4`: the inhibition was 1.48% in [1]; 3.43% in [2]; 8.68% in experiment [3]; 6.54% in experiment [4]; 1.13% in [5]; -1.68% in [6]. Also, the inhibition in experiment [7] was 15.5%; in experiment [8], 30.2%; in experiment [9] it was 12.7%; in experiment [10] it was 14.9%; in [11], 33.5%; in [12], 21.5%.

For the compound `Nc1nc(NCCc2ccc(O)cc2)nc2nc(-c3ccco3)nn12`, the inhibition in experiment [2] is -6.51%; in experiment [3], -1.01%; in [4] it was 1.4%; in experiment [5] it was 40%; in experiment [6] it was 2.08%; in experiment [7] it was 9.88%. In addition, the inhibition was 90.6% in experiment [8]; 44.1% in experiment [9]; 4.31% in experiment [10]; -2.49% in experiment [11]; 22.4% in experiment [12].

With `CNC[C@H](O)c1cccc(O)c1`, the inhibition was 19.6% in [1]; -8.03% in experiment [2]; 21.3% in experiment [3]; 0.2% in experiment [4]; -2.53% in [5]; 10.8% in experiment [6]. Moreover, the inhibition in [7] was 32.8%; in experiment [8], 24.9%; in experiment [9], 8.86%; in [11] it was 11.1%; in experiment [12], 11.8%.

For `O=C(c1cc2c(cc1F)OC(c1ccc(F)cc1)(c1ccc(Cl)cc1Cl)O2)N1CCOCC1` (stereo not drawn), the inhibition is 32.4% in experiment [1]; -9.02% in experiment [2]; 28.5% in [3]; 1.36% in experiment [4]; 5.49% in experiment [5]; 38.9% in [7]. The inhibition is 72.4% in experiment [8]; 52% in experiment [9]; 29.6% in [10]; 48% in [11]; 49.3% in experiment [12].

In the case of `C=CCN1C[C@H](C)N([C@H](c2ccc(C(=O)N(CC)CC)cc2)c2cccc(O)c2)C[C@H]1C`, the inhibition in experiment [1] is -9.85%; in experiment [2], -6.19%; in [3], 9.01%; in experiment [4], 10%; in experiment [5], -2.85%; in experiment [6], 10.2%. Moreover, the inhibition in experiment [7] was 25.4%; in experiment [8] it was 46.7%; in experiment [9], 13%; in experiment [11], 2.02%; in [12], 20.7%.

On to `CC(C)NCC(O)COc1ccc(CCOCC2CC2)cc1` (stereo not drawn), for which the inhibition in experiment [2] was 1.59%; in experiment [3], 24.5%; in experiment [4], -0.24%; in experiment [5] it was 3.26%; in experiment [6], 19.5%; in experiment [7] it was 2.92%. For the same compound, the inhibition in experiment [8] was 76.2%; in [9], 45.1%; in experiment [11], 1.75%; in experiment [12] it was 4.48%.

For `CCCn1c(=O)c2[nH]c(-c3cnn(Cc4cccc(C(F)(F)F)c4)c3)nc2n(CC)c1=O`, the inhibition is 3.75% in experiment [2]; 11% in experiment [3]; -4.02% in experiment [4]; 32.5% in [5]; -5.87% in experiment [6]; -0.44% in experiment [7]. Also, the inhibition in [8] is 18%; in experiment [9], 25.1%; in experiment [10], 0.57%; in [11] it was 5.66%; in experiment [12] it was 14.7%.
